Results from patent US20100086587A1, “HARD SHELL CAPSULE FORMULATIONS” (priority 2006, published 2010).

Test: Moisture loss or gain of filled capsules exposed to a 50% RH environment until equilibrium
Type: physicochemical
Conditions: 50% R.H. environment
Description: An alternative method for evaluating the level of water required to provide a stable hygroscopic formulation involves the preparation of capsules containing different water contents and then quantifying moisture loss or gain when exposed to a 50% RH environment (middle of acceptable RH range for capsules 35% RH to 65% RH). Maltitol, a sugar which is also a hygroscopic excipient, was dissolved in water to produce several aqueous maltitol solutions of concentration 16, 18, 20, 22, 24, 26, 28, 30, 32, 34 and 36% water in maltitol. Both gelatin and HPMC capsules were filled with the various concentrations of solution and the capsules were sealed by banding. The capsules were then exposed to a 50% R.H environment and allowed the capsules to re-equilibrate.
Weight loss (and water loss) ceased when the capsules shell content was in equilibrium with the capsule shell and with the 50% R.H. environment. The equilibrium water content in maltitol that produced stables capsules was approximately 14% water content for gelatin capsules and approximately 13% water content for HPMC capsules.

equilibrium water content in maltitol that produced stable capsules (HPMC capsules): approximately 13%
equilibrium water content in maltitol that produced stable capsules (gelatin capsules): approximately 14%
Compound: OC[C@@H](O)[C@@H](O[C@H]1O[C@H](CO)[C@@H](O)[C@H](O)[C@H]1O)[C@H](O)[C@@H](O)CO [maltitol, Maltitol]
